In ChEMBL document CHEMBL1149775, “Synthesis, characterization and biological activity of Schiff base analogues of indole-3-carboxaldehyde” (2008):
≈ marks a conversion by molar mass, not a printed value.

Assays:
Assay type in all cases: functional
[1] = tested on: Aspergillus niger; assay: Antifungal activity against Aspergillus niger after 48 hrs by serial plate dilution method
[2] = tested on: Candida albicans; assay: Antifungal activity against Candida albicans after 48 hrs by serial plate dilution method
[3] = tested on: Pseudomonas fluorescens; assay: Antibacterial activity against Pseudomonas fluorescens after 24 hrs by broth dilution technique
[4] = tested on: Staphylococcus aureus; assay: Antibacterial activity against Staphylococcus aureus after 24 hrs by broth dilution technique
[5] = tested on: Trichophyton rubrum; assay: Antifungal activity against Trichophyton rubrum after 48 hrs by serial plate dilution method
[6] = tested on: Bacillus subtilis; assay: Antibacterial activity against Bacillus subtilis after 24 hrs by broth dilution technique

Row | MIC [1] [µg/mL] | MIC [2] [µg/mL] | MIC [3] [µg/mL] | MIC [4] [µg/mL] | MIC [5] [µg/mL] | MIC [6] [µg/mL] | Structure (SMILES)
1 | > 50 | 12.5 (≈ 45.6 µM) | 5.7 (≈ 20.8 µM) | 19.2 (≈ 70 µM) | > 50 | 48.2 (≈ 176 µM) | O=C(O)CCC(/N=C/c1c[nH]c2ccccc12)C(=O)O (configuration not stated)
2 | 21.3 (≈ 58.1 µM) | 15.2 (≈ 41.5 µM) | 21.6 (≈ 59 µM) | > 50 | 21.9 (≈ 59.8 µM) | 15.5 (≈ 42.3 µM) | O=S(=O)(O)c1cc(O)c(/N=C/c2c[nH]c3ccccc23)c2ccccc12
3 | > 50 | 26.8 (≈ 110 µM) | 38.1 (≈ 156 µM) | 16.8 (≈ 68.8 µM) | > 50 | 42.5 (≈ 174 µM) | CC(C)C(/N=C/c1c[nH]c2ccccc12)C(=O)O (configuration not stated)
4 | > 50 | 19.9 (≈ 77 µM) | > 50 | 35.3 (≈ 137 µM) | > 50 | 12.1 (≈ 46.8 µM) | CC(C)CC(/N=C/c1c[nH]c2ccccc12)C(=O)O (configuration not stated)
5 | 17.8 (≈ 68.4 µM) | 11.9 (≈ 45.7 µM) | 19.3 (≈ 74.2 µM) | 18.5 (≈ 71.1 µM) | 16.2 (≈ 62.2 µM) | 11.3 (≈ 43.4 µM) | O=C(O)CC(/N=C/c1c[nH]c2ccccc12)C(=O)O (configuration not stated)
6 | > 50 | 28.4 (≈ 120 µM) | 15.8 (≈ 66.9 µM) | 35.9 (≈ 152 µM) | > 50 | 18.4 (≈ 77.9 µM) | Oc1ccccc1/N=C/c1c[nH]c2ccccc12

Row | Structure (SMILES) | MIC [1] [µg/mL] | MIC [2] [µg/mL] | MIC [3] [µg/mL] | MIC [4] [µg/mL] | MIC [5] [µg/mL] | MIC [6] [µg/mL]
7 | O=C(O)C(Cc1c[nH]cn1)/N=C/c1c[nH]c2ccccc12 (configuration not stated) | 47.5 (≈ 168 µM) | > 50 | 3.8 (≈ 13.5 µM) | 3.4 (≈ 12 µM) | > 50 | 35.1 (≈ 124 µM)
